Assay [1] deals with Caco-2 cells. Briefly: Competition of free Neu5Ac with free Neu5Gc for incorporation into Caco-2 cells. The format is cell-based, human. The settings on record: 3 mM Neu5Gc for 3 days. As to the method: Neu5Gc and ManNGc Feeding Experiment—Neu5Ac, Neu5Gc or ManNGc were dried, dissolved in the appropriate media supplemented with heat-inactivated human serum, sterilized using a Spin-X® (Corning Inc., Corning, N.Y.) and then added to the cells. The pH of the media containing Sia was adjusted to neutrality using sterilized 1M NaOH before starting the feeding experiment. Cells were cultured in the presence of up to 3 mM free Sia or ManNGc for 1 or 3 days at 37° C. At the end of the feeding, cells were washed with cold PBS, harvested either by scraping or with 2 mM EDTA for fibroblasts, and washed again with cold PBS prior to fractionation.
Fractionation of the Labeled Cells—Washed cell pellets were sonicated into 500 μL of 20 mM sodium phosphate buffer or 20 mM Tris-HCl, pH 7.5, using 4×15 second pulses of a sonicator cell disrupter, model Some Dismembrator (Fisher Scientific, Hampton, N.J.) at a probe setting of 3. The sonicate was centrifuged at 75×g for 15 min., and the pellet obtained consisted primarily of nuclei and unbroken cells. The pellet contained <5% of the incorporated sialic acid as determined using a radioactive tracer (data not shown.) The supernatant was therefore considered as the “total homogenate” fraction. A portion (20%) of the “total homogenate” fraction was taken for protein quantification and Sia analysis by DMB derivatization and HPLC analysis (as discussed below.) The remainder was centrifuged at 100,000×g for 1 h. The resulting pellet, called the “membrane” fraction, was then resuspended by sonication (15 sec.) in 200 μl of sodium acetate buffer, pH 5.5. The 100,000×g supernatant, called the “soluble” fraction was adjusted to 90% ethanol using absolute ice-cold ethanol, and placed overnight at −20° C. The flocculant precipitate, which represents the “soluble protein” fraction, was washed 3 times with 90% ice-cold ethanol and then resuspended in 200 μl of water. The supernatant fluid representing the cytosolic low molecular weight (LMW) fraction was dried and brought up in 100 μL with water prior to Sia analysis. All the Sias in these fractions were released with mild acid hydrolysis if necessary and then analyzed by HPLC after DMB derivatization. Protein quantification was performed on the total homogenate, membrane and soluble protein fractions by using the BCA protein assay kit from Pierce (Rockford, Ill.) In some experiments, the resulting data obtained for the Sia bound to the membrane fraction and to the soluble proteins were pooled and presented here as a High Molecular Weight (HMW) fraction.
Sialic Acid Release, DMB Derivatization and HPLC Analysis—The bound Sias from the total homogenate, membrane and soluble protein fractions were released using 2M acetic acid hydrolysis, 3 h. at 80° C. The released Sias, or free Sias, contained in the soluble LMW fraction were passed through a Microcon® YM-10 filter (Millipore, Bedford, Mass.) prior to DMB derivatization, which was done according to Hara et al., 1989. DMB-Sia derivatives from the different fractions were then analyzed by HPLC using a C18 column (Microsorb Mv-TM 100 A, Varian, Palo Alto, Calif.) Isocratic elution was achieved using 7% methanol, 8% acetonitrile in water during 50 min. at 0.9 ml/min flow. The eluant was monitored by fluorescence.
Quantification of Sias—For all HPLC chromatograms, the quantification of Sias was done by comparison with known quantities of DMB derivatized Neu5Gc and Neu5Ac used as standards and then reported in terms of pmoles of Sia. For total homogenate, membrane and cytosolic protein fractions, this number was expressed per mg of protein. Due to minor sample-to-sample variations in amounts and recoveries, the data in the Figures is presented as percent of Neu5Gc over total Sias, rather than as absolute amounts.

The subject of assay [2] is human LB EBV-transformed lymphoblasts. Briefly: Neu5Gc/Neu5Ac feeding experiment, human EBV-transformed lymphoblasts. The format is cell-based. The settings on record: human lymphoblasts fed 3 mM for 3 days. The procedure:
(§1) Cell Culture—Caco-2 cells were propagated in alpha-MEM containing GLUTAMAX™ (Invitrogen, San Diego, Calif.) and a mixture of ribonucleosides and deoxyribonucleosides (Gibco/Invitrogen, San Diego, Calif.) supplemented with 20% FCS. All the fibroblast cell lines and CHO-K1 cells were cultured in the same media supplemented respectively with 15% non-heat inactivated FCS or 10% heat inactivated FCS. Chimpanzee Fred and human […] EBV-transformed lymphoblasts were cultured in RPMI-1640 (Gibco/Invitrogen, San Diego, Calif.) supplemented with 10% heat inactivated FCS or 15% human serum. All of the cultures were maintained at 37° C., 5% CO2 atmosphere. In order to deplete any remaining Neu5Gc from FCS, the cells were split and cultured prior to Neu5Gc feeding experiments for at least 4 days in alpha-MEM supplemented with an adequate percentage of heat-inactivated premium human serum instead of FCS. The cells were then maintained under the same conditions during the whole feeding experiment. The human serum was heat inactivated at 56° C. for 30 min. before use.
(§2) Neu5Gc and ManNGc Feeding Experiment—Neu5Ac, Neu5Gc or ManNGc were dried, dissolved in the appropriate media supplemented with heat-inactivated human serum, sterilized using a Spin-X® (Corning Inc., Corning, N.Y.) and then added to the cells. The pH of the media containing Sia was adjusted to neutrality using sterilized 1M NaOH before starting the feeding experiment. Cells were cultured in the presence of up to 3 mM free Sia or ManNGc for 1 or 3 days at 37° C. […]
(§3) Fractionation of the Labeled Cells—Washed cell pellets were sonicated into 500 μL of 20 mM sodium phosphate buffer or 20 mM Tris-HCl, pH 7.5, using 4×15 second pulses of a sonicator cell disrupter, model Some Dismembrator (Fisher Scientific, Hampton, N.J.) at a probe setting of 3. […] The pellet contained <5% of the incorporated sialic acid as determined using a radioactive tracer (data not shown.) The supernatant was therefore considered as the “total homogenate” fraction. A portion (20%) of the “total homogenate” fraction was taken for protein quantification and Sia analysis by DMB derivatization and HPLC analysis (as discussed below.) The remainder was centrifuged at 100,000×g for 1 h. […] All the Sias in these fractions were released with mild acid hydrolysis if necessary and then analyzed by HPLC after DMB derivatization. Protein quantification was performed on the total homogenate, membrane and soluble protein fractions by using the BCA protein assay kit from Pierce (Rockford, Ill.) In some experiments, the resulting data obtained for the Sia bound to the membrane fraction and to the soluble proteins were pooled and presented here as a High Molecular Weight (HMW) fraction. […]

The test system of assay [3] is Caco-2 cells. Briefly: Endocytosis inhibition experiments (Neu5Gc uptake in Caco-2 cells). The format is cell-based, human. The settings on record: 3 mM Neu5Gc, no inhibitor. The procedure: The sonicate was centrifuged at 75×g for 15 min., and the pellet obtained consisted primarily of nuclei and unbroken cells. […] A portion (20%) of the “total homogenate” fraction was taken for protein quantification and Sia analysis by DMB derivatization and HPLC analysis (as discussed below.) The remainder was centrifuged at 100,000×g for 1 h. The resulting pellet, called the “membrane” fraction, was then resuspended by sonication (15 sec.) in 200 μl of sodium acetate buffer, pH 5.5. The 100,000×g supernatant, called the “soluble” fraction was adjusted to 90% ethanol using absolute ice-cold ethanol, and placed overnight at −20° C. The flocculant precipitate, which represents the “soluble protein” fraction, was washed 3 times with 90% ice-cold ethanol and then resuspended in 200 μl of water. The supernatant fluid representing the cytosolic low molecular weight (LMW) fraction was dried and brought up in 100 μL with water prior to Sia analysis. All the Sias in these fractions were released with mild acid hydrolysis if necessary and then analyzed by HPLC after DMB derivatization. Protein quantification was performed on the total homogenate, membrane and soluble protein fractions by using the BCA protein assay kit from Pierce (Rockford, Ill.) In some experiments, the resulting data obtained for the Sia bound to the membrane fraction and to the soluble proteins were pooled and presented here as a High Molecular Weight (HMW) fraction. Sialic Acid Release, DMB Derivatization and HPLC Analysis—The bound Sias from the total homogenate, membrane and soluble protein fractions were released using 2M acetic acid hydrolysis, 3 h. at 80° C. The released Sias, or free Sias, contained in the soluble LMW fraction were passed through a Microcon® YM-10 filter (Millipore, Bedford, Mass.) prior to DMB derivatization, which was done according to Hara et al., 1989. […] The eluant was monitored by fluorescence. Quantification of Sias—For all HPLC chromatograms, the quantification of Sias was done by comparison with known quantities of DMB derivatized Neu5Gc and Neu5Ac used as standards and then reported in terms of pmoles of Sia. For total homogenate, membrane and cytosolic protein fractions, this number was expressed per mg of protein. Due to minor sample-to-sample variations in amounts and recoveries, the data in the Figures is presented as percent of Neu5Gc over total Sias, rather than as absolute amounts. Endocytosis Inhibition Experiments—Caco-2 or normal fibroblast cells were split and cultured in alpha-MEM media supplemented respectively with 20% or 15% human serum for 4 days before starting the endocytosis drug inhibition experiments in order to deplete any Neu5Gc derived from FCS. Cells were then pre-treated for 2 h. with the specific inhibitors under the same culture conditions. Fresh media containing the same amount of inhibitor and 3 mM of Neu5Gc was then added to the cells, which were incubated for 16 h or 3 days and finally harvested and fractionated as described above.

For another assay, the system named is chimpanzee lymphoblasts. The experiment in a line: Neu5Gc/Neu5Ac feeding experiment, chimpanzee EBV-transformed lymphoblasts. It is filed as cell-based. The settings on record: chimpanzee lymphoblasts fed 3 mM for 3 days. The procedure: as §1, §2, §3

For the molecule `O=C(CO)N[C@H]1[C@H]([C@H](O)[C@H](O)CO)OC(O)(C(=O)O)C[C@@H]1O` (stereo partly drawn) [Neu5Gc, N-glycolylneuraminic acid], in the assay with Caco-2 cells [1] (no added Neu5Ac), the “Neu5Gc as percent of total Sia, membrane-bound fraction” value is reported as 41%. Also, the “Neu5Gc as percent of total Sia, TH” value in the assay with Caco-2 cells [1] (no added Neu5Ac (baseline incorporation)) turned out to be 56%. In assay [2], the “Neu5Gc as percent of total Sia, HMW fraction” value amounted to 51%; the “Neu5Gc as percent of total Sia, LMW cytosolic fraction” value stood at 80%; the “Neu5Gc as percent of total Sia, TH fraction” value amounted to 67%. Besides, the “Neu5Gc incorporation into membrane-bound glycoconjugates without inhibitor (percent of total Sia)” value in the assay with Caco-2 cells [3] came out at 45%. The “Neu5Gc as percent of total Sia, TH fraction” value with chimpanzee lymphoblasts (non-fed baseline 57%) came to 70%. In addition, the “Neu5Gc as percent of total Sia, HMW fraction” value with chimpanzee lymphoblasts (non-fed baseline 66%) is 72%. In addition, in the assay on chimpanzee lymphoblasts (non-fed baseline 70%), the “Neu5Gc as percent of total Sia, LMW fraction” value amounted to 84%.

Source of the values: patent publication US20080166805A1, “Culturing human cells and tissues in an N-glycolylneuraminic acid-free environment” (The Regents of the University of California, priority 2005, published 2008).
